According to patent US10006918B2, “Fluorogenic hydrazine-substituted compounds” (LIFE TECHNOLOGIES CORPORATION, priority 2008, dated 2018):

Assay: Aldehyde reactivity of compounds: fluorogenic reaction with acetaldehyde in phosphate buffer, excitation/emission spectra
Format: physicochemical
Description: Spectra were taken at pH 6 in a 50 mM phosphate buffer solution.
Spectra were taken at pH 6 in 50 mM phosphate buffer solution.
A sample of Compound 2 (5 mg, 0.0126 mmol) is dissolved in 10 ml of pH 6.5, 50 mmol phosphate buffer solution. To this non-fluorescent solution, is added 25 ul, 1 mol solution of acetaldehyde in water at room temperature. […] The reaction is complete in 10 minutes to give a stable […] analog. Its absorption max is at 548 nm and emission max is at 580 nm (see FIGS. 3A and B).

[1] = after reaction with acetaldehyde, pH 6.5 phosphate buffer
[2] = aldehyde-reacted, pH 6, 50 mM phosphate buffer, FIG. 3B

SMILES: NN=c1ccc2c(-c3ccccc3S(=O)(=O)O)c3ccc(NN)cc3oc-2c1 [Compound 2, 2-(6-hydrazinyl-3-hydrazono-3H-xanthen-9-yl)benzenesulfonate]
- fluorescence of solution after addition of acetaldehyde (25 ul 1 mol acetaldehyde in water, room temperature, pH 6.5 phosphate buffer, within a few minutes): highly fluorescent
- change of fluorescence upon reaction with an aldehyde (emission spectra before and after contact with acetaldehyde) (acetaldehyde, pH 6, 50 mM phosphate buffer, FIG. 1): significant fluorescent increase
- absorption max of acetaldehyde reaction product [1]: 548 nm
- emission max of acetaldehyde reaction product [1]: 580 nm
- emission spectra maximum, aldehyde-reacted compound [2]: 581 nm
- excitation maximum, aldehyde-reacted compound [2]: 548 nm
- time to complete reaction with acetaldehyde (room temperature, pH 6.5, 50 mmol phosphate buffer): 10 min
- excitation maximum, un-reacted compound (un-reacted dye, FIG. 3A): 519 nm
